Tested on: Vibrio fischerio
Test: Microtox Response Test (bioluminescence of Microtox Acute Toxicity Reagent)
Assay type: cell-based
Details: pure anionic surfactant; index from EC50 Value (ppm) decreasing bioluminescence by 50%, 5 minutes
Text: The biological activity/mildness of a pure surfactant can measured directly via a Microtox Response Test hereinafter described in the Analytical Methods section and can be reported as a Microtox Response Index. By “pure surfactant” it is meant a chemical composition consisting essentially of a single surfactant entity, wherein the entity has essentially one chain length, head group and salt counter ion. From a standpoint of high biological activity, preferred anionic surfactants of the antimicrobial cleansing compositions of the present invention have a Microtox Response Index of less that about 150, more preferably less than about 100 and most preferably less than about 50. […]
For surfactant compositions which are mixtures of surfactants rather than pure surfactants (this includes “commercial grade” surfactants which typically comprise mixtures of entities with different chain lengths and potentially have higher levels of impurities), the Microtox Response Index for any individual surfactant component is not a reliable measurement of biological activity or mildness. In the case of mixtures, the Microtox Index of each individual component can be determined and the weighted average used as the Index for the mixture if all the individual components of the mixture are known. […]

Molecule	Microtox Index
CCCCCCCCCCCCOS(=O)(=O)O.N [ALS, ammonium lauryl sulfate]	1.0
ammonium laureth-3 sulfate	120

— patent US6482423B1, “Antimicrobial wipes which provide improved residual benefit versus gram positive bacteria” (The Procter & Gamble Company, priority 1999, dated 2002)
